In patent publication US20210107871A1 (priority 2017, published 2021):

How the values were obtained:
Type in all cases: cell-based
[1] = tested on: pseudotype VSV (expressing GFP) having the surface glycoprotein of Ebola virus (zaire sp.); assay: organism not typed; conditions: for IC50: Vero C1008; for activity at 0.02 µM / activity at 0.078 µM / activity at 0.312 µM / activity at 0.625 µM / activity at 1.25 µM / activity at 2.5 µM / activity at 5 µM / activity at 0.005 µM: Vesicular stomatitis virus, Vero C1008, 18 h, read-out: Viral Infection rate (%); for activity at 0.02 µM: Compound Conc. 0.020 μM; for activity at 0.078 µM: Compound Conc. 0.078 μM; for activity at 0.312 µM: Compound Conc. 0.312 μM; for activity at 0.625 µM: Compound Conc. 0.625 μM; for activity at 1.25 µM: Compound Conc. 1.25 μM; for activity at 2.5 µM: Compound Conc. 2.5 μM; for activity at 5 µM: Compound Conc. 5 μM; for activity at 0.005 µM: Compound Conc. 0.005 μM
[2] = tested on: sudan Ebola virus (pseudotype VSV); assay: microbe, parasite or virus in culture; conditions: Sudan ebolavirus, read-out: C values
[3] = tested on: bundibugyo Ebola virus (pseudotype VSV); assay: microbe, parasite or virus in culture; conditions: read-out: C values
[4] = tested on: tai forest Ebola virus (pseudotype VSV); assay: microbe, parasite or virus in culture; conditions: read-out: C values
[5] = tested on: reston Ebola virus (pseudotype VSV); assay: microbe, parasite or virus in culture; conditions: Reston ebolavirus, read-out: C values
[6] = tested on: Marburgvirus (Angola strain) (pseudotype VSV); assay: microbe, parasite or virus in culture; conditions: Orthomarburgvirus, read-out: C values

CCN(CC)CCCN(c1ccc(OC)cc1-c1ccccc1)S(=O)(=O)c1ccccc1 [4-17, N-[3-(diethylamino)propyl]-N-(4-methoxy-2-phenyl-phenyl)benzensulfonamide]
IC50 [1]: ~50 nM | activity at 0.02 µM [1]: 72.6% | activity at 0.078 µM [1]: 34.6% | activity at 0.312 µM [1]: 1.91% | activity at 0.625 µM [1]: 2.05% | activity at 1.25 µM [1]: 0.2% | activity at 2.5 µM [1]: 0.81% | activity at 5 µM [1]: 0.22% | IC50 [2]: ~300 nM | IC50 [3]: ~50 nM | IC50 [4]: 500 to 1000 nM | IC50 [5]: ~1000 nM | IC50 [6]: 1000 to 5000 nM

COc1ccc(N(CC2CCN(C)CC2)S(=O)(=O)c2ccccc2)c(-c2ccccc2)c1 [4-20]
IC50 [1]: ~50 nM | activity at 0.005 µM [1]: 91.8% | activity at 0.02 µM [1]: 78.8% | activity at 0.078 µM [1]: 43.7% | activity at 0.312 µM [1]: 4.58% | activity at 0.625 µM [1]: 2.58% | activity at 1.25 µM [1]: 0.23% | activity at 2.5 µM [1]: 0.09% | activity at 5 µM [1]: 0.17% | IC50 [2]: ~300 nM | IC50 [3]: ~50 nM | IC50 [4]: 500 to 1000 nM | IC50 [5]: ~1000 nM | IC50 [6]: 1000 to 5000 nM

CCN1CCC(CN(c2ccc(OC)cc2-c2ccccc2)S(=O)(=O)c2ccccc2)CC1 [4-21]
IC50 [1]: ~50 nM | activity at 0.02 µM [1]: 64.6% | activity at 0.078 µM [1]: 28.5% | activity at 0.312 µM [1]: 0.75% | activity at 0.625 µM [1]: 0.22% | activity at 1.25 µM [1]: 0.18% | activity at 2.5 µM [1]: 0.12% | activity at 5 µM [1]: 0.17% | IC50 [2]: ~300 nM | IC50 [3]: ~50 nM | IC50 [4]: 500 to 1000 nM | IC50 [5]: ~1000 nM | IC50 [6]: 1000 to 5000 nM

COc1ccc(N(CCCN(C)C)S(=O)(=O)c2ccccc2)c(-c2ccccc2)c1 [4-27, N-[3-(dimethylamimo)propyl]-N-(4-methoxy-2-phenyl-phenyl)benzensulfonamide]
IC50 [1]: ~50 nM | activity at 0.02 µM [1]: 81.5% | activity at 0.078 µM [1]: 45% | activity at 0.312 µM [1]: 3.49% | activity at 0.625 µM [1]: 0.4% | activity at 1.25 µM [1]: 0.18% | activity at 2.5 µM [1]: 0.14% | activity at 5 µM [1]: 0.2% | IC50 [2]: ~300 nM | IC50 [3]: ~50 nM | IC50 [4]: 500 to 1000 nM | IC50 [5]: ~1000 nM | IC50 [6]: 1000 to 5000 nM

CCN1CCC(CN(c2ccc(OC)cc2-c2ccccc2F)S(=O)(=O)c2ccccc2)CC1 [4-57, N-[2-(2-fluorophenyl)-4-methoxy-phenyl)-N-(1-ethyl-4-piperidylmethyl)benzensulfonamide]
activity at 0.005 µM [1]: 101% | activity at 0.078 µM [1]: 93.3% | activity at 0.312 µM [1]: 58.2% | activity at 1.25 µM [1]: 1% | activity at 5 µM [1]: 0.83%

CCN1CCC(CN(c2ccc(OC)cc2-c2ccccc2)S(=O)(=O)c2cccc(F)c2)CC1 [4-63, 3-fluoro-N-(4-methoxy-2-phenyl-phenyl)-N-(1-ethyl-4-piperidylmethyl)benzensulfonamide]
activity at 0.005 µM [1]: 96.7% | activity at 0.02 µM [1]: 96.2% | activity at 0.078 µM [1]: 78.2% | activity at 0.312 µM [1]: 34.3% | activity at 1.25 µM [1]: 0.81% | activity at 5 µM [1]: 0%

CCN(CC)CCCN(c1ccc(OC)cc1-c1ccc(F)cc1)S(=O)(=O)c1ccccc1 [4-68, N-[3-(diethylamino)propyl]-N-[2-(4-fluorophenyl)-4-methoxy-phenyl)benzensulfonamide]
activity at 0.005 µM [1]: 99.3% | activity at 0.312 µM [1]: 52.8% | activity at 5 µM [1]: 0.25%
